Reference: patent US20090286731A1, “METHODS AND COMPOSITIONS FOR THE TREATMENT OF XEROSTOMIA” (THE REGENTS OF THE UNIVERSITY OF COLORADO, A BODY CORPORATE, priority 2006, published 2009)

Legend:
[1] = test system: primary salivary acinar cells; assay: Induction of apoptosis in primary salivary acinar cells (caspase-3 activity); format: cell-based, mouse
Method: In FIG. 3A, all adherent and nonadherent primary parotid acinar cells were collected and lysed in caspase lysis buffer (BioMol QuantiZyme Colormetric Assay kit) and 15 μg of cell lysate was used to analyze the level of enzyme activity for each sample in quadruplicate. The ability of the enzyme to cleave a chromogenic substrate was read at A405 every ten minutes for seven hours and the -fold increase relative to untreated parotid cells is plotted. […] In FIG. 3B, primary submandibular acinar cells were collected in caspase lysis buffer as described above and the -fold increase relative to untreated submandibular cells is plotted. […] Graphs of caspase activity represent all data points collected from five independent experiments and Student's t-test p values were calculated using Microsoft Excel comparing two different treatment groups.
Generation and cultivation of primary salivary acinar cells. Primary salivary acinar cells were prepared from 4-5 week old female FVB or myr-Akt1 transgenic mice. […]
Induction and quantitation of apoptosis. […] Activation of caspase 3 was quantitated using BioMol QuantiZyme Colormetric Assay kit (Plymouth Meeting, Pa.). […] Caspase-3 activity in 15 μg of cellular lysate was measured by the cleavage of Ac-DEVD-pNA substrate and absorbance at A405 was quantitated in a microtiter plate reader (Molecular Devices) at 10-minute intervals for 7 hrs.

ATM and Chk1 = assay: Phosphorylation of ATM, Chk1 and p53 in myr-Akt1 primary salivary acinar cells (immunoblot); format: cell-based, mouse; details: with or without siRNA that targeted MDM2
Method: In FIG. 9A, primary salivary acinar cells isolated from myr-Akt1 mice were transfected with various control or MDM2 specific siRNA molecules. Cell lysates were collected 24-72 hrs after transfection and immunoblotted with an anti-MDM2 antibody (top panel) or anti-p53 (DO12, middle panel). […] In lanes 6 and 7, primary salivary acinar cells isolated from myr-Akt1 mice were transfected with siRNA molecules targeting MDM2 for 48 hrs.
Immunoblotting. Tissues were lysed in RIPA (150 mM NaCl, 50 mM Tris, pH 7.4, 2 mM EGTA, 1% Triton X-100, 0.25% sodium deoxycholate) supplemented with protease inhibitor cocktail (Sigma Chemical Company, St. Louis, Mo.), 100 μg/ml phenylmethylsulfonyl fluoride, and 100 U/ml aprotinin (Pierce Chemical Company, Rockford, Ill.). […] Primary salivary acinar cells were lysed in JNK lysis buffer (25 mM HEPES, pH 7.5, 20 mM β-glycerophosphate, 0.1 mM sodium orthovandadate, 0.1% Triton X-100, 0.3M NaCl, 1.5 mM MgCl2, 0.2 mM EDTA, 0.5 mM dithiothreitol, and 10 mM NaF) supplemented with aprotinin (4 μg/ml), Prefebloc (0.5 mg/ml), and leupeptin (2 μg/ml) (Pierce Chemical Company) and 1 mM sodium orthovandate, and the lysates clarified by centrifugation at 4° C. for 30 min at 13,000 rpm in a refrigerated Savant microcentrifuge (Anderson et al., 1999). Protein concentrations were determined using the BCA Protein Assay Kit (Pierce Chemical Company). […]

Akt = assay: IGF1 activation of endogenous Akt in the salivary gland after tail vein injection (anti-phospho-Akt immunoblot); format: in vivo, mice; details: for activation of Akt (immunoblotting with anti-phospho-Akt (threonine^473) antibody): salivary gland
Method: (§1) FIGS. 12A-C—IGF1 activation of Akt in vivo and rescue of salivary flow rates 3 days after single γ-irradiation exposure. (FIG. 12A) FVB mice received an injection of 1, 5, 10, or 50 ng/ml recombinant IGF1. Tissue lysates were collected for immunoblotting five minutes after injection and membranes were probed for activation of Akt using a phosphorylation specific antibody. (FIG. 12B) FVB mice received an injection of 5 μg/ml recombinant IGF1 and tissue lysates were collected for immunoblotting 0, 5, 10 or 30 min after injection. Membranes were probed for activated Akt as described in FIG. 12A. Membranes were stripped and re-probed with a total antibody against ERK1/2 as a loading control in both A and B. (FIG. 12C) Four-week old female FVB mice were injected with 5 μg/ml recombinant IGF1 immediately prior to treatment with 1Gy γ-irradiation. Total saliva was collected following carbachol injection as described in FIG. 11 three days after radiation exposure. For Untreated, N=10; for IGF1, N=5; for 1 Gy, N=10, and for 1 Gy+IGF1, N=7. Statistical analysis was performed using Student's t-test in Microsoft Excel.
γ-irradiation treatment. For in vivo experiments, four-week old female FVB and myr-Akt1 transgenic mice were anesthetized with avertin (0.4-0.6 mg/gm, IP) and the head and neck region was exposed to ionizing radiation using a RS 2000 Biological Irradiator (Humphries et al., 2006). The rest of the body was shielded with 6 mm lead foil and sheets to avoid systemic effects of γ-irradiation. […] For IGF1 injections, mice were anesthetized with avertin and tails were warmed in water to allow dilation of blood vessels. Mice were injected with a total volume of 100 μl of IGF1 diluted in sterile PBS and immediately placed into the radiation chamber.
Stimulation of cells with both IGF1 and EGF produced a synergistic activation of Akt and suppression of apoptosis (Limesand et al., 2003). […] Mice were injected with 1, 5, 10, or 50 μg recombinant IGF1 and the activation of Akt was examined in the salivary gland five minutes after injection.
The inventors also determined the kinetics with which Akt was activated following injection of mice with 5 μg IGF1. Salivary glands were removed at 5, 10, and 30 minutes post-injection, tissue lysates prepared, and the activation of Akt examined by immunoblotting with anti-phospho-Akt ([…]) antibody (FIG. 12B). […] Future studies are needed to determine whether Akt remains activated for longer periods of time.

FVB mice = assay: Salivary flow rate after head and neck γ-irradiation (carbachol-stimulated saliva collection); format: in vivo
Method: FIG. 11—Rescue of salivary flow rates 3 days after single γ-irradiation exposure in Myr-Akt1 mice. Four-week old female FVB and myr-Akt1 mice were exposed to 1, 2, or 5Gy γ-irradiation. Three days after irradiation total saliva was collected (over a five-minute period) following carbachol injection. Statistical analysis was performed using Student's t-test in Microsoft Excel.
as §1
FIG. 13—Rescue of salivary flow rates 30 days after single γ-irradiation exposure by Myr-Akt1 or injection with IGF1. Four-week old female FVB, myr-Akt1 and FVB mice injected with 5 μg/ml recombinant IGF1 were exposed to 1Gy γ-irradiation. IGF1 injections were performed immediately prior to radiation exposure as described in FIGS. 12A-C. Thirty days after exposure to γ-irradiation total saliva was collected following carbachol injection as described in FIG. 11. For unirradiated, untreated, N=8; for unirradiated myr-Akt1, N=8; for unirradiated IGF1 injected, N=8; for 1 Gy irradiated FVB, N=8, for myr-Akt1 riiadiated with 1 Gy, N=6, for FVB that received IGF1 and I Gy, N=6. Statistical analysis was performed using multiple comparison testing in the SAS system.
γ-irradiation treatment. For in vivo experiments, four-week old female FVB and myr-Akt1 transgenic mice were anesthetized with avertin (0.4-0.6 mg/gm, IP) and the head and neck region was exposed to ionizing radiation using a RS 2000 Biological Irradiator (Humphries et al., 2006). The rest of the body was shielded with 6 mm lead foil and sheets to avoid systemic effects of γ-irradiation. […] For IGF1 injections, mice were anesthetized with avertin and tails were warmed in water to allow dilation of blood vessels. […]

salivary acinar cells [2] = assay: Activated caspase-3 staining of irradiated salivary glands (apoptotic cells); format: in vivo; details: pretreatment of mice with IGF1
Method: Activated caspase-3 staining. Salivary glands were removed at various time points post-irradiation, fixed in 10% neutral buffered formalin, and then embedded in paraffin. Slides were stained for activated caspase-3 (Cell Signaling #9661; Beverly, Mass.) as previously described (Humphries et al., 2006). Cell counts were performed on a minimum of five fields of view per slide from three mice (total cells counted ranged from 1800-2500 per mouse).

salivary acinar cells [3] = details: cited from earlier work

## COc1cc([C@@H]2c3cc4c(cc3[C@@H](O[C@@H]3O[C@@H]5CO[C@@H](C)O[C@H]5[C@H](O)[C@H]3O)[C@H]3COC(=O)[C@H]23)OCO4)cc(OC)c1O [etoposide]
[1]; cells from FVB control mice
  apoptosis of salivary acinar cells: induce apoptosis
[1]; myr-Akt1 salivary acinar cells, 18 hrs after treatment
  apoptosis (caspase-3 activation): did induce some apoptosis
ATM and Chk1
  phosphorylation of ATM at serine^1981: resulted in the phosphorylation of ATM

## IGF1: recombinant IGF1, activator of the Akt pathway, injected into the tail vein of mice
Akt; 5 μg IGF1, salivary gland
  phosphorylated Akt thirty minutes following administration: could still be detected
Akt; 5 μg IGF1, salivary glands removed at 5, 10 and 30 minutes
  time of maximal activation of Akt after injection: five
Akt; five minutes after injection of 1 μg and 5 μg IGF1
  activation of Akt (immunoblotting with anti-phospho-Akt (threonine^473) antibody): results in the activation of Akt
Akt; five minutes after injection of 10 and 50 μg IGF1 per mouse
  activation of Akt (immunoblotting with anti-phospho-Akt (threonine^473) antibody): did not result in the activation of Akt
FVB mice; 5 μg IGF1, unirradiated mice, three days following injection
  salivary flow rate, IGF1 alone: had no effect
FVB mice; IGF1 injected, unirradiated, thirty-day time point
  salivary flow rate versus unirradiated FVB control mice: not a statistical difference
FVB mice; single dose of 5 μg recombinant IGF1 immediately prior to 1 Gy, three days after exposure
  irradiation-induced reduction in salivary flow rate: completely suppressed
FVB mice; single dose of IGF1 prior to 1 Gy γ-irradiation, 30 days after exposure
  decrease in salivary flow rate compared to controls: no decrease in salivary flow rate
Salivary acinar cells [2]
  number of apoptotic cells after irradiation: significantly decreases the number of apoptotic cells
Salivary acinar cells [3]
  activation of Akt: induces activation of Akt
  apoptosis induced by etoposide: suppresses apoptosis
